Test systems include 786-0 renal; A498 renal; EKVX NSCLC; HCT-15 colon; MDA-MB-231 breast; OVCAR-5 ovarian; SK-MEL-28 melanoma; SK-OV-3 ovarian; UO-31 renal; OVCAR-4 ovarian.
Holding throughout (assay): DTP human tumour cell line panel, 48 h

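Five compound concentrations were applied to cells in 96-well plates for 48 hours; endpoints were derived by simple linear interpolation of the resulting dose-response curve. At the GI50, growth is halved. TGI marks complete inhibition of growth.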

Usually TGI stands for the concentration giving total growth inhibition. A high value points to less potent growth arrest. The term GI50 denotes the concentration at which growth is held to half of that of the control.

Turning to `Cn1c2ccccc2c2[nH]c3ccccc3c(=O)c21`, the TGI in the experiment with 786-0 renal, in the experiment on A498 renal, in the experiment with EKVX NSCLC, with HCT-15 colon, with MDA-MB-231 breast and with OVCAR-5 ovarian was greater than 100 µM each time. Further, the TGI with SK-MEL-28 melanoma, with SK-OV-3 ovarian and in the experiment with UO-31 renal was greater than 100 µM throughout.

Turning to `Cc1ccccc1NC(=O)c1cc2ccccc2cc1O`, the GI50 with 786-0 renal is 3.41 µM; in the experiment on EKVX NSCLC, 2.36 µM; in the experiment on HCT-15 colon it was 3.84 µM; with MDA-MB-231 breast, 3.17 µM; in the experiment with OVCAR-4 ovarian, 3.44 µM; in the experiment with OVCAR-5 ovarian, 5.88 µM. The figures for the GI50 in the experiment with SK-MEL-28 melanoma, with SK-OV-3 ovarian and with UO-31 renal were 5.09 µM, 2.64 µM and 3.54 µM, respectively. Besides, the TGI is greater than 100 µM with 786-0 renal; 91.8 µM in the experiment on EKVX NSCLC; greater than 100 µM in the experiment on HCT-15 colon; 15.2 µM with MDA-MB-231 breast; greater than 100 µM in the experiment on OVCAR-4 ovarian; 85.6 µM in the experiment with OVCAR-5 ovarian. Besides, the TGI in the experiment on SK-MEL-28 melanoma was greater than 100 µM; in the experiment with SK-OV-3 ovarian, 14.6 µM; with UO-31 renal it was greater than 100 µM.

For the molecule `O=CN1N=C(c2ccc(Nc3ccnc4cc(Cl)ccc34)cc2)CC1c1ccc(Cl)cc1` (configuration not stated), the GI50 with 786-0 renal is 0.908 µM; in the experiment on A498 renal it was greater than 100 µM; with HCT-15 colon, 0.58 µM; in the experiment on MDA-MB-231 breast, 1.43 µM; in the experiment on OVCAR-4 ovarian it was 6.48 µM; with OVCAR-5 ovarian it was 6.46 µM. Besides, the GI50 in the experiment on SK-MEL-28 melanoma was 0.758 µM; in the experiment on UO-31 renal, 1.3 µM. In addition, the TGI in the experiment on 786-0 renal, in the experiment on A498 renal, with HCT-15 colon, with MDA-MB-231 breast, with OVCAR-4 ovarian and in the experiment with OVCAR-5 ovarian was greater than 100 µM throughout. The TGI in the experiment with SK-MEL-28 melanoma and in the experiment on UO-31 renal was greater than 100 µM each time.

On to `CCc1c2c(nc3ccc(OCc4ccc(B5OC(C)(C)C(C)(C)O5)cc4)cc13)-c1cc3c(c(=O)n1C2)COC(=O)[C@]3(O)CC`, for which the GI50 was 0.02 µM in the experiment on 786-0 renal; 0.0406 µM in the experiment with A498 renal; 0.431 µM in the experiment with EKVX NSCLC; 0.331 µM with HCT-15 colon; 1.1 µM in the experiment on MDA-MB-231 breast; 0.192 µM in the experiment on OVCAR-4 ovarian. Besides, the GI50 in the experiment on OVCAR-5 ovarian was 0.215 µM; with SK-MEL-28 melanoma, 0.604 µM; in the experiment with UO-31 renal, 0.0326 µM. Moreover, the TGI was 0.0691 µM with 786-0 renal; 0.376 µM in the experiment with A498 renal; greater than 100 µM in the experiment with EKVX NSCLC; greater than 100 µM in the experiment with HCT-15 colon; greater than 100 µM in the experiment on MDA-MB-231 breast; greater than 100 µM with OVCAR-4 ovarian. Moreover, the values for the TGI in the experiment with OVCAR-5 ovarian, in the experiment with SK-MEL-28 melanoma and in the experiment with UO-31 renal were greater than 100 µM, greater than 100 µM and 1.02 µM, respectively.

Turning to `COC1C(O)C(C)OC(O[C@@H]2C[C@H]3CC[C@@H]4[C@H](CC[C@]5(C)[C@@H](C6=CC(=O)OC6)CC[C@]45O)[C@@]3(C)[C@H](O)C2)C1O` (some centres not stated), the TGI is greater than 100 µM with 786-0 renal; 0.0871 µM in the experiment on A498 renal; 0.168 µM in the experiment on EKVX NSCLC; 0.327 µM with HCT-15 colon; greater than 100 µM with MDA-MB-231 breast; 0.0379 µM in the experiment with OVCAR-4 ovarian. Moreover, the figures for the TGI in the experiment with OVCAR-5 ovarian, in the experiment on SK-MEL-28 melanoma and with SK-OV-3 ovarian were 0.365 µM, 0.819 µM and 0.347 µM, respectively.

For `NS(=O)(=O)c1ccc(N2N=C(c3cccs3)CC2c2ccccc2O)cc1` (configuration not stated), the GI50 was 1.84 µM with 786-0 renal; 0.835 µM in the experiment with A498 renal; 1.35 µM in the experiment on HCT-15 colon; 0.972 µM in the experiment on MDA-MB-231 breast; 2.88 µM with OVCAR-4 ovarian; 1.25 µM with OVCAR-5 ovarian. Further, the GI50 in the experiment on SK-MEL-28 melanoma was 2.12 µM; with SK-OV-3 ovarian it was 1.18 µM; in the experiment on UO-31 renal, 4.01 µM. Moreover, the TGI with 786-0 renal was 8.45 µM; in the experiment with A498 renal, 4.01 µM; with HCT-15 colon, greater than 33.3 µM; in the experiment on MDA-MB-231 breast, 3.19 µM; with OVCAR-4 ovarian, greater than 33.3 µM; in the experiment with OVCAR-5 ovarian, 6.11 µM. The TGI in the experiment on SK-MEL-28 melanoma stood at 8.62 µM; in the experiment on SK-OV-3 ovarian, 10.1 µM; with UO-31 renal, 12.1 µM.

For the molecule `C=C(C)C(=O)O[C@H]1CC2=CC(CC(C)=C[C@H]3OC(=O)C(=C)C13)OC2=O` (some centres not stated), the TGI in the experiment with 786-0 renal is 24.4 µM; in the experiment with A498 renal, 76 µM; in the experiment with EKVX NSCLC, 43.8 µM; in the experiment on HCT-15 colon, 25.6 µM; with MDA-MB-231 breast, 60.8 µM; with OVCAR-4 ovarian, greater than 100 µM. In addition, the results for the TGI in the experiment with OVCAR-5 ovarian and with SK-MEL-28 melanoma were greater than 100 µM and 31.2 µM, respectively.

`O=C(NC1C=Nc2ccccc2NC1=O)c1ccccc1Cl` (configuration not stated): the TGI with 786-0 renal, with A498 renal, with EKVX NSCLC, with HCT-15 colon, in the experiment with OVCAR-4 ovarian and with OVCAR-5 ovarian was greater than 100 µM each time. Moreover, the TGI in the experiment on SK-MEL-28 melanoma, in the experiment with SK-OV-3 ovarian and in the experiment with UO-31 renal was greater than 100 µM each time.

On to `CC1CC(=O)c2c(ccc3c2C(=O)c2cccc(O)c2C3=O)C1` (configuration not stated), for which the TGI came out at 21.2 µM in the experiment with 786-0 renal; 27.5 µM with A498 renal; 28 µM in the experiment on EKVX NSCLC; 22.9 µM in the experiment with HCT-15 colon; 25.3 µM in the experiment on OVCAR-4 ovarian; 36.1 µM in the experiment on OVCAR-5 ovarian. The TGI was found to be 26.6 µM in the experiment on SK-MEL-28 melanoma, 57.2 µM with SK-OV-3 ovarian and 24.2 µM in the experiment on UO-31 renal.

On to `O=[N+]([O-])c1cc2c(ccc3occc32)o1`, for which the GI50 in the experiment with 786-0 renal was 2.37 µM; in the experiment on A498 renal, 2.21 µM; with HCT-15 colon, 1.96 µM; in the experiment on MDA-MB-231 breast it was 1.84 µM; in the experiment on OVCAR-4 ovarian, 27.2 µM; in the experiment with OVCAR-5 ovarian, 3.5 µM. Further, the GI50 was 2.17 µM with SK-MEL-28 melanoma, 3.03 µM with SK-OV-3 ovarian and 1.99 µM in the experiment with UO-31 renal. The TGI is 5 µM with 786-0 renal; 4.58 µM in the experiment on A498 renal; 5.97 µM in the experiment on HCT-15 colon; 5.83 µM in the experiment on MDA-MB-231 breast; greater than 100 µM in the experiment on OVCAR-4 ovarian; 15.4 µM in the experiment with OVCAR-5 ovarian. In addition, the TGI in the experiment with SK-MEL-28 melanoma is 6.27 µM; with SK-OV-3 ovarian it was 9.66 µM; in the experiment on UO-31 renal, 7.65 µM.
